“Also recorded” adds a separate entry of the source.
System: lung mucus collected from patients with cystic fibrosis
Experiment: Macrorheology of cystic fibrosis lung mucus after treatment with reducing agents
Set-up: species or system human
Conditions: 30 min at 37° C.; for Viscosity of CF mucus after treatment: frequency sweep at 2% strain, FIG. 8
Description: In order to determine the mucolytic potential of thiol-functionalized polyglycerol derivatives the rheological properties of lung mucus, which was collected from patients with cystic fibrosis, were determined before and after treatment with different reducing or control agents. In addition, mucus from a healthy donor was used as control. Rheological measurements can be generally used to determine both elastic and viscous material components. Clinical samples were obtained freshly from cystic fibrosis (CF) patients at Charité Berlin and put directly on ice after collection. Then, the samples were mixed with a protease inhibitor cocktail (Roche) and aliquoted in 150 μl portions. The samples were then treated with different concentrations of freshly prepared reducing agents for 30 min at 37° C. Control samples were kept on ice throughout the incubation time or treated with phosphate-buffered saline (PBS) and incubated for 30 min at 37° C. After the incubation time all samples were kept on ice until use for the macrorheological studies. Here, a Kinexus instrument (Malvern) with a cone-and-plate setup was used. The cone geometry was 20 mm diameter and a […] angle. Each sample was run with an amplitude sweep mode at an oscillatory frequency of 1 Hz to determine the linear viscoelastic regime. In order to obtain viscosity parameters, measurements were repeated at 2% stain in a frequency sweep mode.

SMILES: O[C@H](CS)[C@H](O)CS (racemic) [DTT, Dithiothreitol]
- Viscosity of CF mucus after treatment: reduces the viscosity of CF mucus to level significantly below the viscosity level of mucus from healthy individuals; also recorded: completely destroys the viscosity properties of mucus

SMILES: CC(=O)N[C@@H](CS)C(=O)O [NAC, N-acetylcysteine]
- Elastic modulus (G') of CF mucus after treatment (amplitude sweep at 1 Hz, FIG. 7): comparably slight reduction of the elastic modulus like a treatment with physiological phosphate buffer (PBS)
- Viscosity of CF mucus after treatment: does not show any enhanced mucolytic activity than PBS
